Reference: patent publication US20180221384A1, “COMPOSITIONS OF MIDAZOLAM FOR BUCCAL ADMINISTRATION IN THE TREATMENT OF SEIZURES TO OBTAIN RAPID ONSET OF ACTION” (SWIPP AB, priority 2015, published 2018)
Where a name gives a salt, the structure may show the parent alone. Read-outs that look alike come from different tables or passages of the source.

Key:
[1] = cited from earlier work
[2] = cited from earlier work; remark: listed apart in the source
[3] = Pilot in vivo study: midazolam film preparation applied on the oro-mucosal membrane, plasma levels by LC-MS/MS; conditions: for Corresponding plasma levels in children weighing 20 kg: at least; for Side-effects: healthy volunteers
Method: Film preparations weighing approximately 0.07 g (1×2 cm) containing 2 mg midazolam hydrochloride were applied on the oro-mucosal membrane in healthy volunteers (body weight 90 kg). Venous blood samples were drawn 6, 12 and 18 minutes after application.
Film preparations weighing approximately 0.07 g (1×2 cm) containing 1 mg midazolam hydrochloride were applied on the oro-mucosal membrane in healthy volunteers (body weight 90 kg). Venous blood samples were drawn 6, 12 and 18 minutes after application.

[4] = midazolam solution 5 mg buccal, healthy volunteers (Schwagmeier et al. 1998)
[5] = human, plasma, other: applied on the oro-mucosal membrane, 1 mg

SMILES | Time to plasma concentration of 5 ng/mL ([1]; approx. 10 mg midazolam, adult volunteers, most of the subjects (Scott et al. 1998)) [min] | Blood levels [1, 4] [ng/mL] | Time to blood levels of 5-10 ng/mL [1, 4] [min] | Time to anticonvulsive effect ([2]; adults administered 10-20 mg (Nakken et al. 2011)) [min] | Time to anticonvulsive effect ([2]; children, buccal dose 0.2 mg/kg (Talukbar et al. 2009)) [min] | Blood levels ([3]; buccal film or wafer, dose 2 mg, adult volunteers (summary in description)) [ng/mL] | Plasma level ([3]; buccal film, dose 1 mg midazolam, adult 90 kg (summary in description)) | Plasma level (in words) ([3]; buccal film, dose 1 mg, adults average body weight 90 kg) | Corresponding plasma levels in children weighing 20 kg ([3]; extrapolated from adults given 1 mg film) [ng/mL] | Corresponding plasma levels in children weighing 20 kg ([3]; extrapolated from adults given 2 mg film) [ng/mL] | Side-effects ([3]; film containing 1 mg midazolam hydrochloride) | Side-effects ([3]; film containing 2 mg midazolam hydrochloride) | Average plasma levels ([3]; film containing 2 mg midazolam hydrochloride, oro-mucosal, healthy volunteers 90 kg) [ng/mL] | concentration at 6 min [3, 5] [ng/mL] | concentration at 12 min [3, 5] [ng/mL]
Cc1ncc2n1-c1ccc(Cl)cc1C(c1ccccc1F)=NC2 [midazolam, Midazolam] | 5 to 10 | 5 to 10 | 3 to 6 | ≤ 5 | ≤ 5 | 5 to 10 | about 5 ng/mL | therapeutic levels | – | – | – | – | – | – | –
Cc1ncc2n1-c1ccc(Cl)cc1C(c1ccccc1F)=NC2 [midazolam hydrochloride, Midazolam hydrochloride] | – | – | – | – | – | – | – | – | 15 to 20 | 15 to 50 | No side-effects were observed | No side-effects were observed | 5 | 1 | 4.6
